Molecules are shown by their SMILES. pIC50, pKd: −log10 of the molar value. Where only a bound is given, the exact number is not on record here.

This is an account of results in patent publication US20260347353A1, “INDOLIZINE DERIVATIVES FOR TREATING CANCER” (Antares Therapeutics, Inc., priority 2022, published 2026).

The target of one assay is p53 Y220C (Homo sapiens, UniProt P04637, Y220C). In words: Luciferase Reporter Assay, p53 Y220C (NCIH1299 cells with inducible p53 Y220C and p53 response element-luciferase). The note with it: 6 hour compound treatment, read-out: Luc P53 Y220C AC50. The class given is cell-based. The protocol: Luciferase reporter (Luc) driven by p53 response element (LTV-p53-Luc (SKU #: LTLR007); G&P Biosciences) and inducible p53 Y220C construct (Tet-One inducible expression system; Takara) were stably expressed in NCIH1299 cells by lentiviral transduction. The cells were then used for p53 reporter assay. 5,000 cells were seeded in each well of 384 plate and cultured in 0.5 ug/mL doxycycline (D3072; Sigma) containing medium for 24 hours before compound treatment. After 6 hour of compound treatment, equal volume of One-Glo reagent (E6110; Promega) was added to each well and the plate was incubated for 5 minutes with shaking at room temperature. The luciferase activity was immediately measured with PheraStar microplate reader. Luciferase activity was stimulated by 10 uM of a tool compound as positive control and AC50 was calculated.
For orientation: In a reporter assay the amount or activity of a reporter protein is the signal.

For another assay, the system named is NUGC3 cells (p53 Y220C). Kind of assay: Cell Proliferation Assay (CellTiter-Glo), NUGC3 p53 Y220C. The class given is cell-based. Particulars: Homo sapiens, NUGC-3, 120 h, 5 days, read-out: CTG NUGC3 P53 Y220C IC50. Here is the method: (§1) Inducible p53 Y220C and R273H constructs (Tet-One inducible expression system; Takara) were stably expressed in NCIH1299 cells by lentiviral transduction. NUGC3, A549, BxPC3, T3M4, HuH7, HCC2935, MFE296, NCIH1299, NCIH1299-inducible p53 Y220C, and NCIH1299-inducible p53 R273H cell lines were used for cell proliferation assay. 250-500 cells were seeded in each well of 384 plate and then compounds were dispensed into each well using Echo or Tecan. After 5 days of incubation, equal volume of CellTiter-Glo reagent (G7570; Promega) was added into each well and the plate was incubated at room temperature for 10 minutes with shaking. The luminescent signal was measured by PheraStar microplate reader and IC50 was calculated.
On the technique in general: In ATP-based viability assays light output follows the ATP content of the culture.

Assay [1] deals with T1, p53 Y220C mutant protein (amino acid residues 94-293) (Homo sapiens, UniProt P04637, Y220C).
T1 construct: p53 Y220C mutant protein (amino acid residues 94-293)
T1 sequence (P04637 94-293, stated change not applied): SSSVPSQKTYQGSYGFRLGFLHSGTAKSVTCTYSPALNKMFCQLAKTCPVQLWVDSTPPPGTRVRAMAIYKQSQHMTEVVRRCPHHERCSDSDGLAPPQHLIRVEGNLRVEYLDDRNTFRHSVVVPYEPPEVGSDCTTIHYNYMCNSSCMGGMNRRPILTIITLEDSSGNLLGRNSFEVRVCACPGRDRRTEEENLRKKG
Kind of assay: Surface Plasmon Resonance (SPR) assay, p53 Y220C Kd_kinetic. Particulars: multi-cycle kinetics, 16 or 20 °C, pH 7.5, 1:1 binding model. Here is the method: SPR experiments are performed on a Biacore 8K instrument. […] Compounds are 2-fold, 7-point serial diluted; the top concentration varies depending on the potency. Compound binding affinities are measured in the multi-cycle kinetics mode, at 30 μL/min flow rate with 60 seconds association time and 120 seconds dissociation time. The running buffer contains 50 mM Tris, pH 7.5, 100 mM NaCl, 1 mM DTT, 0.01% Brij35, 0.05% Tween-20 and 1% DMSO. The assay temperature is maintained at 16 or 20 °C and data are fit into the 1:1 binding model using the Biacore Insight Evaluation software.

The test system of assay [2] is NCIH1299-inducible p53 Y220C cells. In words: Cell Proliferation Assay (CellTiter-Glo), NCIH1299-inducible p53 Y220C. The class given is cell-based. The note with it: Homo sapiens, NCI-H1299, 120 h, 5 days, read-out: CTG H1299 P53 Y220C IC50. The protocol: as §1

As for `C[C@@H](NC(=O)C1CC1)c1nc(-c2cc3c(N[C@@H]4CCN(C)C[C@@H]4F)cccn3c2SC(F)(F)F)no1` (relative stereo) [Example 51, N-[(1R*)-1-[3-(8-{[(3S,4R)-3-fluoro-1-methylpiperidin-4-yl]amino}-3-[(trifluoromethyl)sulfanyl]indolizin-2-yl)-1,2,4-oxadiazol-5-yl]ethyl]cyclopropanecarboxamide], the half-maximal activity concentration (AC50) at p53 Y220C is no less than 3000 nM. Also, the pIC50 (in the assay on NUGC3 cells (p53 Y220C); in assay [2]) was no more than 5.52 each time. This compound also showed a pKd in assay [1] of 7.00 to 8.00.

As for `CN1CC[C@@H](Nc2cccn3c(SC(F)(F)F)c(-c4noc(CNC(=O)c5cnn(C(C)(C)C)c5)n4)cc23)[C@@H](F)C1` [Example 2, 1-tert-butyl-N-{[3-(8-{[(3S,4R)-3-fluoro-1-methylpiperidin-4-yl]amino}-3-[(trifluoromethyl)sulfanyl]indolizin-2-yl)-1,2,4-oxadiazol-5-yl]methyl}pyrazole-4-carboxamide], at p53 Y220C, the AC50 is less than 750 nM. The pIC50 (with NUGC3 cells (p53 Y220C); in assay [2]) was greater than 6.12 each time. Further, in assay [1], the pKd was greater than 8.00.

As for `CN1CC[C@@H](Nc2cccn3c(SC(F)(F)F)c(-c4noc(CNC(=O)C5CC5)n4)cc23)[C@@H](F)C1` [Example 3, N-{[3-(8-{[(3S,4R)-3-fluoro-1-methylpiperidin-4-yl]amino}-3-[(trifluoromethyl)sulfanyl]indolizin-2-yl)-1,2,4-oxadiazol-5-yl]methyl}cyclopropanecarboxamide], at p53 Y220C, the AC50 is less than 750 nM. For the same compound, the pIC50 (with NUGC3 cells (p53 Y220C); in assay [2]) was greater than 6.12 each time. In assay [1], this compound gave a pKd greater than 8.00.

In the case of `CN1CC[C@@H](Nc2cccn3c(SC(F)(F)F)c(-c4nsc(CNC(=O)C5CC5)n4)cc23)[C@@H](F)C1` [Example 4, N-{[3-(8-{[(3S,4R)-3-fluoro-1-methylpiperidin-4-yl]amino}-3-[(trifluoromethyl)sulfanyl]indolizin-2-yl)-1,2,4-thiadiazol-5-yl]methyl}cyclopropanecarboxamide], the AC50 on p53 Y220C is no less than 3000 nM. For the same compound, the pIC50 (in the assay with NUGC3 cells (p53 Y220C); in assay [2]) was no more than 5.52 each time. Moreover, the negative-log Kd (pKd) in assay [1] was 7.00 to 8.00.

With `CN1CC[C@@H](Nc2cccn3c(SC(F)(F)F)c(-c4nsc(CNC(=O)c5cnn(C(C)(C)C)c5)n4)cc23)[C@@H](F)C1` [Example 5, 1-tert-butyl-N-{[3-(8-{[(3S,4R)-3-fluoro-1-methylpiperidin-4-yl]amino}-3-[(trifluoromethyl)sulfanyl]indolizin-2-yl)-1,2,4-thiadiazol-5-yl]methyl}pyrazole-4-carboxamide], at p53 Y220C, the AC50 was no less than 3000 nM. Further, the pIC50 (with NUGC3 cells (p53 Y220C); in assay [2]) was no more than 5.52 each time. Also, the pKd in assay [1] is 6.00 to 7.00.

Regarding `CN1CC[C@@H](Nc2cccn3c(SC(F)(F)F)c(-c4nsc(CNC(=O)c5ccn(C(C)(C)C)c5)n4)cc23)[C@@H](F)C1` [Example 6, 1-tert-butyl-N-{[3-(8-{[(3S,4R)-3-fluoro-1-methylpiperidin-4-yl]amino}-3-[(trifluoromethyl)sulfanyl]indolizin-2-yl)-1,2,4-thiadiazol-5-yl]methyl}pyrrole-3-carboxamide], at p53 Y220C, the AC50 is no less than 3000 nM. Also, the pIC50 (in the assay on NUGC3 cells (p53 Y220C); in assay [2]) was no more than 5.52 each time. The compound also showed a pKd in assay [1] of no more than 6.00.

`CN1CC[C@@H](Nc2cccn3c(SC(F)(F)F)c(-c4noc(CNC(=O)c5ccn(C(C)(C)C)c5)n4)cc23)[C@@H](F)C1` [Example 7, 1-tert-butyl-N-{[3-(8-{[(3S,4R)-3-fluoro-1-methylpiperidin-4-yl]amino}-3-[(trifluoromethyl)sulfanyl]indolizin-2-yl)-1,2,4-oxadiazol-5-yl]methyl}pyrrole-3-carboxamide]: the AC50 on p53 Y220C is less than 750 nM. The pIC50 (with NUGC3 cells (p53 Y220C); in assay [2]) was greater than 6.12 in each case. Also, the pKd in assay [1] was greater than 8.00.

Take `CN1CC[C@@H](Nc2cccn3c(SC(F)(F)F)c(-c4noc(CNC(=O)C5CC(O)C5)n4)cc23)[C@@H](F)C1` (stereo partly drawn) [Example 8, (1r,3r)-N-{[3-(8-{[(3S,4R)-3-fluoro-1-methylpiperidin-4-yl]amino}-3-[(trifluoromethyl)sulfanyl]indolizin-2-yl)-1,2,4-oxadiazol-5-yl]methyl}-3-hydroxycyclobutane-1-carboxamide]: on p53 Y220C, the AC50 was in the range of 1500 to 3000 nM. Besides, the pIC50 is 5.52 to 5.82 in the assay with NUGC3 cells (p53 Y220C) and 5.82 to 6.12 in assay [2]. Moreover, the negative logarithm of the Kd (pKd) in assay [1] is greater than 8.00.

`COc1ccc2n[nH]c(CC(=O)NCc3nc(-c4cc5c(N[C@@H]6CCN(C)C[C@@H]6F)cccn5c4SC(F)(F)F)no3)c2c1` [Example 9, N-{[3-(8-{[(3S,4R)-3-fluoro-1-methylpiperidin-4-yl]amino}-3-[(trifluoromethyl)sulfanyl]indolizin-2-yl)-1,2,4-oxadiazol-5-yl]methyl}-2-(5-methoxy-1H-indazol-3-yl)acetamide]: on p53 Y220C, the AC50 was no less than 3000 nM. The pIC50 (with NUGC3 cells (p53 Y220C); in assay [2]) was 5.52 to 5.82 each time. In assay [1], this compound had a pKd of 6.00 to 7.00.

As for `CN1CC[C@@H](Nc2cccn3c(SC(F)(F)F)c(-c4noc(CNC(=O)C5CC(F)(F)C5)n4)cc23)[C@@H](F)C1` [Example 10, 3,3-difluoro-N-{[3-(8-{[(3S,4R)-3-fluoro-1-methylpiperidin-4-yl]amino}-3-[(trifluoromethyl)sulfanyl]indolizin-2-yl)-1,2,4-oxadiazol-5-yl]methyl}cyclobutane-1-carboxamide], at p53 Y220C, the AC50 lay within 1500 to 3000 nM. In addition, the pIC50 (in the assay with NUGC3 cells (p53 Y220C); in assay [2]) was no more than 5.52 each time.

Regarding `CN1CC[C@@H](Nc2cccn3c(SC(F)(F)F)c(-c4noc(CNC(=O)C5(NC(=O)OC(C)(C)C)CC5)n4)cc23)[C@@H](F)C1` [Example 22, tert-butyl N-[1-({[3-(8-{[(3S,4R)-3-fluoro-1-methylpiperidin-4-yl]amino}-3-[(trifluoromethyl)sulfanyl]indolizin-2-yl)-1,2,4-oxadiazol-5-yl]methyl}carbamoyl)cyclopropyl]carbamate], the AC50 on p53 Y220C is no less than 3000 nM. For the same compound, the pIC50 in the assay with NUGC3 cells (p53 Y220C) was 5.52 to 5.82; in assay [2], no more than 5.52.

For `CN1CC[C@@H](Nc2cccn3c(SC(F)(F)F)c(-c4noc(CNC(=O)C5(C#N)CC5)n4)cc23)[C@@H](F)C1` [Example 28, 1-cyano-N-{[3-(8-{[(3S,4R)-3-fluoro-1-methylpiperidin-4-yl]amino}-3-[(trifluoromethyl)sulfanyl]indolizin-2-yl)-1,2,4-oxadiazol-5-yl]methyl}cyclopropane-1-carboxamide], the concentration at half-maximal activity (AC50) on p53 Y220C was less than 750 nM. Also, the pIC50 (with NUGC3 cells (p53 Y220C); in assay [2]) was greater than 6.12 in each case.

For `CN1CC[C@@H](Nc2cccn3c(SC(F)(F)F)c(-c4noc(CNC(=O)c5cnn(C)c5)n4)cc23)[C@@H](F)C1` [Example 85], the AC50 at p53 Y220C was less than 750 nM. Further, the pIC50 with NUGC3 cells (p53 Y220C) was greater than 6.12. In assay [1], this compound gave a pKd greater than 8.00.

Consider `CN1CC[C@@H](Nc2cccn3c(SC(F)(F)F)c(-c4cc(CNC(=O)c5cnn(C(C)(C)C)c5)no4)cc23)[C@@H](F)C1` [Example 89], for which the AC50 on p53 Y220C is less than 750 nM. For the same compound, in the assay on NUGC3 cells (p53 Y220C), the pIC50 is greater than 6.12. This compound also had a pKd in assay [1] greater than 8.00.

For `CN1CC[C@@H](Nc2cccn3c(SC(F)(F)F)c(-c4noc(CNC(=O)c5nsc(N(C)C)n5)n4)cc23)[C@@H](F)C1` [Example 93], the AC50 on p53 Y220C is less than 750 nM. Further, the pIC50 with NUGC3 cells (p53 Y220C) was greater than 6.12. The compound also had a pKd in assay [1] greater than 8.00.

For the compound `CN1CC[C@@H](Nc2cccn3c(SC(F)(F)F)c(-c4noc(CNC(=O)c5ccn(C6(C)CCOCC6)c5)n4)cc23)[C@@H](F)C1` [Example 94], on p53 Y220C, the AC50 was less than 750 nM. Also, in the assay on NUGC3 cells (p53 Y220C), the negative-log IC50 (pIC50) was greater than 6.12. Moreover, in assay [1], the pKd is greater than 8.00.

Take `Cc1noc(C(=O)NCc2nc(-c3cc4c(N[C@@H]5CCN(C)C[C@@H]5F)cccn4c3SC(F)(F)F)no2)n1` [Example 98]: the AC50 at p53 Y220C fell in the range of 750 to 1500 nM. For the same compound, the pIC50 in the assay with NUGC3 cells (p53 Y220C) was 5.82 to 6.12. In addition, the pKd in assay [1] was greater than 8.00.

By AC50 is commonly meant the concentration at which the activity in the assay is half-maximal. What is called pIC50 is the negative decadic logarithm of the IC50, by convention in mol/L. One may read the pKd as the negative decadic logarithm of the Kd, by convention in mol/L. Higher therefore signals a low Kd.
